Results published in ChEMBL document CHEMBL4765295, “Synthesis, pharmacological profile and 2D-QSAR studies of curcumin-amino acid conjugates as potential drug candidates” (Eur J Med Chem, 2020).
Values joined by “and” are separate entries in the source; they are usually repeats but may differ in a detail not shown here. Equal entries are not always repeated.

How the values were obtained:
Peritoneal macrophage [1] = test: Antiinflammatory activity in […] mouse Peritoneal macrophages assessed as inhibition of LPS-induced NO production at 10 uM preincubated for 1 hr followed by LPS stimulation measured after 24 hrs by Griess method relative to control (reference value: 0.0 %); assay type: functional; design: scale not given: the % may be the effect or the level left; details: time 25 hrs
Rattus norvegicus [2] = test: Antiinflammatory activity in Wistar rat model of carrageenan-induced paw edema assessed as reduction in thickness of paw edema at 10 mg/kg, ip pretreated for 1 hr followed by carrageenan challenge and measured after 4 hrs (reference value: 1.40 +/-0.10 mm); assay type: functional; details: time 5 hrs
Salmonella typhimurium = test: Antibacterial activity against Salmonella typhimurium ATCC 19430 incubated for 18 hrs by agar dilution assay; assay type: functional, Salmonella enterica subsp. enterica serovar Typhimurium; details: Salmonella enterica
Rattus norvegicus [3] = test: Anti-inflammatory activity in Wistar rat assessed as inhibition of carrageenan-induced paw edema at 10 mg/kg, ip pretreated for 1 hr followed by carrageenan challenge and measured after 24 hr relative to control (reference value: 0.00 +/-0.3 %); assay type: functional; details: time 25 hrs
Candida albicans = test: Antifungal activity against Candida albicans incubated for 18 to 24 hrs by CLSI method; assay type: functional; details: time 18-24 hrs
Splenocyte [4] = test: Immunomodulatory activity in Swiss albino mouse splenocytes assessed as cell viability at 10 uM by measuring inhibition of stimulation index incubated for 72 hrs in presence of mitogenic stimulus phytohaemagglutinin by MTT assay relative to indomethacin; assay type: functional; details: read-out: Activity
Pseudomonas aeruginosa = test: Antibacterial activity against Pseudomonas aeruginosa ATCC 27853 incubated for 18 hrs by agar dilution assay; assay type: functional
Streptococcus pyogenes = test: Antibacterial activity against Streptococcus pyogenes ATCC 19615 incubated for 18 hrs by agar dilution method; assay type: functional
Rattus norvegicus [5] = test: Anti-inflammatory activity in Wistar rat assessed as inhibition of carrageenan-induced paw edema at 10 mg/kg, ip pretreated for 1 hr followed by carrageenan challenge and measured after 1 hr relative to control (reference value: 0.00 +/-0.02 %); assay type: functional; details: time 2 hrs
Rattus norvegicus [6] = test: Antiinflammatory activity in Wistar rat model of carrageenan-induced paw edema assessed as reduction in thickness of paw edema at 10 mg/kg, ip pretreated for 1 hr followed by carrageenan challenge and measured after 24 hrs (reference value: 0.83 +/-0.08 mm); assay type: functional; details: time 25 hrs
Staphylococcus aureus = test: Antibacterial activity against Staphylococcus aureus ATCC 25923 incubated for 18 hrs by agar dilution method; assay type: functional
Rattus norvegicus [7] = test: Anti-inflammatory activity in Wistar rat assessed as inhibition of carrageenan-induced paw edema at 10 mg/kg, ip pretreated for 1 hr followed by carrageenan challenge and measured after 4 hr relative to indomethacin; assay type: functional; details: time 5 hrs
Peritoneal macrophage [8] = test: Antiinflammatory activity in […] mouse Peritoneal macrophages assessed as reduction in LPS-induced NO production by measuring reduction in stimulation index at 10 uM preincubated for 1 hr followed by LPS stimulation measured after 24 hrs by Griess method (reference value: 27.31 +/- 2.56 uM); assay type: functional; details: time 25 hrs
Rattus norvegicus [9] = test: Anti-inflammatory activity in Wistar rat assessed as inhibition of carrageenan-induced paw edema at 10 mg/kg, ip pretreated for 1 hr followed by carrageenan challenge and measured after 2 hr relative to control (reference value: 0.00 +/-0.03 %); assay type: functional; details: time 3 hrs
Rattus norvegicus [10] = test: Anti-inflammatory activity in Wistar rat assessed as inhibition of carrageenan-induced paw edema at 10 mg/kg, ip pretreated for 1 hr followed by carrageenan challenge and measured after 4 hr relative to control (reference value: 0.00 +/-0.4 %); assay type: functional; details: time 5 hrs
PC-3 = test: Antiproliferative activity against human PC3 cells assessed as inhibition of cell growth after 72 hrs by MTT assay; assay type: functional, cell-based; details: PC-3, 72 h
Rattus norvegicus [11] = test: Antiinflammatory activity in Wistar rat model of carrageenan-induced paw edema assessed as reduction in thickness of paw edema at 10 mg/kg, ip pretreated for 1 hr followed by carrageenan challenge and measured after 3 hrs (reference value: 1.79 +/-0.07 mm); assay type: functional; details: time 4 hrs
Rattus norvegicus [12] = test: Anti-inflammatory activity in Wistar rat assessed as inhibition of carrageenan-induced paw edema at 10 mg/kg, ip pretreated for 1 hr followed by carrageenan challenge and measured after 3 hr relative to control (reference value: 0.00 +/-0.1 %); assay type: functional; details: time 4 hrs
Splenocyte [13] = test: Immunomodulatory activity in Swiss albino mouse splenocytes assessed as cell viability at 10 uM by measuring stimulation index incubated for 72 hrs in presence of mitogenic stimulus phytohaemagglutinin by MTT assay (reference value: 1.00 +/- 0.24); assay type: functional
A549 = test: Antiproliferative activity against human A549 cells assessed as inhibition of cell growth after 72 hrs by MTT assay; assay type: functional, cell-based; details: A549, 72 h
MCF7 = test: Antiproliferative activity against human MCF7 cells assessed as inhibition of cell growth after 72 hrs by MTT assay; assay type: functional, cell-based; details: MCF7, 72 h
Rattus norvegicus [14] = test: Antiinflammatory activity in Wistar rat model of carrageenan-induced paw edema assessed as reduction in thickness of paw edema at 10 mg/kg, ip pretreated for 1 hr followed by carrageenan challenge and measured after 1 hr (reference value: 2.41 +/-0.05 mm); assay type: functional; details: time 1 hr after carrageenan
Rattus norvegicus [15] = test: Antiinflammatory activity in Wistar rat model of carrageenan-induced paw edema assessed as reduction in thickness of paw edema at 10 mg/kg, ip pretreated for 1 hr followed by carrageenan challenge and measured after 2 hrs (reference value: 2.06 +/-0.09 mm); assay type: functional; details: time 3 hrs

| Structure (SMILES) | Activity (Peritoneal macrophage [1]) | Activity (Rattus norvegicus [2]) | MIC (Salmonella typhimurium) | inhibition in vivo at 10 mg/kg (Rattus norvegicus [3]) | MIC (Candida albicans) | viability at 10 µM (Splenocyte [4]) | MIC (Pseudomonas aeruginosa) | MIC (Streptococcus pyogenes) | inhibition in vivo at 10 mg/kg (Rattus norvegicus [5]) | Activity (Rattus norvegicus [6]) | MIC (Staphylococcus aureus) | inhibition in vivo at 10 mg/kg (Rattus norvegicus [7]) | Activity (Peritoneal macrophage [8]) | inhibition in vivo at 10 mg/kg (Rattus norvegicus [9]) | inhibition in vivo at 10 mg/kg (Rattus norvegicus [10]) | IC50 (PC-3) | Activity (Rattus norvegicus [11]) | inhibition in vivo at 10 mg/kg (Rattus norvegicus [12]) | Activity_index (Splenocyte [13]) | IC50 (A549) | further results |
| --- | --- | --- | --- | --- | --- | --- | --- | --- | --- | --- | --- | --- | --- | --- | --- | --- | --- | --- | --- | --- | --- |
| COc1cc(/C=C/C(=O)/C=C(O)/C=C/c2ccc(OC(=O)[C@@H](N)Cc3ccccc3)c(OC)c2)ccc1OC(=O)[C@@H](N)Cc1ccccc1.Cl.Cl | 39.74% | 0.22 mm | 0.125 µg/mL and 0.17 µM | 20% | 0.5 µg/mL and 0.68 µM | 85.6% | 0.5 µg/mL and 0.68 µM | 0.5 µg/mL and 0.68 µM | 46% | 0.66 mm | 0.25 µg/mL and 0.34 µM | 97% | 16.46 µM | 51% | 84% | 74.4 µM | 0.66 mm | 63% | 1.41 | 33.5 µM | IC50 (MCF7): 11.5 µM; Activity (Rattus norvegicus [14]): 1.29 mm; Activity (Rattus norvegicus [15]): 1.01 mm |
| COc1cc(/C=C/C(=O)/C=C(O)/C=C/c2ccc(OC(=O)[C@@H](N)C(C)C)c(OC)c2)ccc1OC(=O)[C@@H](N)C(C)C.Cl.Cl | 24.37% | 0.75 mm | 0.125 µg/mL and 0.195 µM | 14% | 0.125 µg/mL and 0.195 µM | 59% | 0.25 µg/mL and 0.391 µM | 0.125 µg/mL and 0.195 µM | 60% | 0.71 mm | 0.25 µg/mL and 0.391 µM | 53% | 20.65 µM | 50% | 46% | 34.6 µM | 0.93 mm | 48% | 2.05 | 20.4 µM | IC50 (MCF7): 10.4 µM; Activity (Rattus norvegicus [14]): 0.97 mm; Activity (Rattus norvegicus [15]): 1.4 mm |
| CC[C@H](C)[C@H](N)C(=O)Oc1ccc(/C=C/C(=O)/C=C(O)/C=C/c2ccc(OC(=O)[C@@H](N)[C@@H](C)CC)c(OC)c2)cc1OC.Cl.Cl | 35.45% | 0.34 mm | 0.125 µg/mL and 0.187 µM | 30% | 0.125 µg/mL and 0.187 µM | 76% | 0.25 µg/mL and 0.374 µM | 0.5 µg/mL and 0.749 µM | 33% | 0.58 mm | 0.25 µg/mL and 0.374 µM | 87% | 17.63 µM | 36% | 76% | 34.4 µM | 0.94 mm | 47% | 1.59 | 20.9 µM | IC50 (MCF7): 10.2 µM; Activity (Rattus norvegicus [14]): 1.61 mm; Activity (Rattus norvegicus [15]): 1.31 mm |
